Data as given in patent US20200188319A1, “Use Of Inhaled Nitric Oxide For The Treatment Of Pulmonary Hypertension Associated With Lung Disease” (Bellerophon Pulse Technologies LLC, priority 2017, published 2020).
“And” between values parts separate entries of the source, which are not always exact repeats. Equal entries are not always repeated. Where two headings read alike, the source gives them in different places.

Assays:
[1] = test system: PH-COPD subjects; experiment: Chronic iNO: six-minute walk distance (6MWD) in PH-COPD subjects; format: in vivo, human; settings: seven PH-COPD subjects, group value, iNO 30 mcg/kg/IBW, FIG. 10
Text: Oxygen saturation can be measured before, during or after tests that assess exercise capacity. One approach to assess exercise capacity is the six-minute walk test, which provides the 6MWD. Other measurements that can be used to assess exercise capacity include, but are not limited to, shuttle walk test, activity level, forced exercise, maximal exercise test, treadmill, bicycle and cardiopulmonary exercise test.
(§1) This study is an open label Phase 1 study of iNO therapy in subjects with PH-COPD (PULSE-COPD-007; NCT03135860). The primary outcome of this study is the change in lobar blood volume at total lung capacity with iNO and the change in lobar blood volume with iNO after 4 weeks of treatment with iNO as measured by HRCT.
(§2) Subjects also had sPAP≥38 mm Hg as measured by echocardiogram, a post-bronchodilatory FEV1/FVC<0.7 and a FEV1<60% predicted. All subjects were at least 40 years old and were current or former smokers with at least 10 pack-years of tobacco cigarette smoking before study entry. All subjects also had been receiving LTOT for at least 3 months for at least 10 hours per day.
(§3) The PH-COPD subjects received pulsed iNO therapy for 4 weeks for at least 12 hours/day. The iNO was administered utilizing a 4,880 ppm NO cylinder concentration.
A further analysis was performed of seven PH-COPD subjects that completed 4 weeks of treatment with iNO at a dose of 30 mcg/kg IBW/hr. […]

[2] = test system: PH-COPD subjects; experiment: Chronic iNO: sPAP by echocardiogram in PH-COPD subjects; format: in vivo, human; settings: group value, FIG. 11
Text: as §1, §2, §3
(§4) A further analysis was performed of seven PH-COPD subjects that completed 4 weeks of treatment with iNO at a dose of 30 mcg/kg IBW/hr. The 6MWD and sPAP results are also presented in FIGS. 10 and 11, respectively.
As shown in FIG. 10, the change in 6MWD after 2 weeks of iNO therapy is +53.9 meters (p=0.02). Similarly, the change in 6MWD after 4 weeks of iNO therapy is +50.7 meters (p=0.04). In the literature, 27-54 meter improvements in 6MWD are considered clinically significant as measured by patient perceptions of improvement.

[3] = test system: PH-IPF subjects; experiment: Chronic iNO: TAPSE (RV function) in PH-IPF subjects; format: in vivo, human
Text: (§5) One or more embodiments of the present invention also relate to maintaining and/or improving right ventricular (RV) function using long-term iNO therapy. Maintenance and/or improvements in RV function can be assessed by many echocardiographic measurements. One such quantitative approach to assess RV function is the measurement of the tricuspid annular plane systolic excursion (TAPSE). The TAPSE estimates RV systolic function by measuring the level of systolic excursion of the lateral tricuspid valve annulus towards the apex. An excellent correlation between the TAPSE and RV ejection fraction as assessed by radionuclide angiography has previously been established and the approach appears reproducible and proven to be a strong predictor of prognosis in heart failure. [Reference: Heart. 2006 April; 92(Suppl 1): i19-i26.]
(§6) One patient from Part 2a entered into Part 2b. During Part 2b patient receive iNO utilizing NO cylinder concentration (4,880 ppm) at a dose of 75 mcg/kg IBW/hr during 4 weeks for at least 12 hours/day.
(§7) The 2 patients from Part 3a entered Part 3b. During Part 3b, patients received iNO utilizing NO cylinder concentration (4,880 ppm) at a dose of 30 mcg/kg IBW/hr.
Subject 1 received pulsed iNO at a dose of 75 mcg/kg IBW/hr for 4 weeks, and Subject 3 received pulsed iNO at a dose of 30 mcg/kg IBW/hr for 4 weeks.

[4] = test system: PH-IPF subjects; experiment: Acute iNO: blood vessel volume by HRCT in PH-IPF subjects on LTOT; format: in vivo, human
Text: This study was an exploratory, three-part, clinical study to assess the effect of pulsed iNO on functional pulmonary imaging parameters in subjects with PH-COPD on LTOT (Part 1) PH-IPF on LTOT (Part 2 and Part 3) (IK-7002-COPD-006; NCT02267655). The objective of this exploratory study was to examine the utility of high resolution computed tomography (HRCT) to measure changes in functional respiratory imaging parameters as a function of short term iNO administration using a pulsed NO delivery device in subjects with PH-IPF (Part 2 and Part 3) on LTOT. The primary endpoint in this exploratory study is the change from baseline in lobar blood volume at total lung capacity (TLC) after dosing with pulsed iNO (Part 1), iNO or Placebo (Part 2a) and after 4 weeks iNO treatment (Part 3b) as measured by HRCT.
This was an exploratory clinical study to evaluated the utility of HRCT to measure the pharmacodynamic effects of short term pulsed administration of iNO using a pulsed NO delivery device in subjects with PH-IPF (Part 2 and Part 3) on LTOT.
(§8) The 2 subjects enrolled in Part 2 were randomly assigned for Part 2a to 1 of 2 sequences to receive iNO utilizing the NO cylinder concentration (4,880 ppm) at a dose of 75 mcg/kg IBW/hr or placebo set at a dose of 75 mcg/kg IBW/hr.
(§9) The 2 subjects enrolled in Part 3a each received three different doses of iNO utilizing NO cylinder concentration (4,880 ppm) at a dose of 5 mcg/kg IBW/hr, 10 mcg/kg IBW/hr and 30 mcg/kg IBW/hr, all with LTOT. For each dose, the change in PAP pressure and the change in cardiac output was evaluated by RHC. The investigator could decide after each dose to continue with the following dose or not.
(§10) […], the vasodilation and the hemodynamics were assessed. During the chronic phase, the focus was exercise capacity. Oxygen saturation during exercise was evaluated both at baseline as well as after 4 weeks of chronic treatment with iNO. Both the acute and chronic phases evaluated iNO doses of 30 and 75 mcg/kg IBW/hr.

[5] = test system: pulmonary arterial hypertension (PAH); settings: cited from earlier work
[6] = test system: PH-COPD subjects; experiment: Chronic iNO: TAPSE in PH-COPD subjects; format: in vivo, human
Text: as §5, §1, §2, §3
These subjects were diagnosed with PH-COPD and received 4 weeks of treatment with iNO at a dose of 30 mcg/kg IBW/hr. The results verify the increase in TAPSE which correlates to RV function.

[7] = test system: PH-IPF subjects; experiment: Acute iNO: sPAP in PH-IPF subjects; format: in vivo, human
Text: In Part 2 of the study the subjects needed to have severe PH, therefore PH in Part 2 was defined as sPAP≥50 mm Hg by 2-D echocardiogram. In Part 3 PH was defined as sPAP≥35 mm Hg by echocardiogram (Part 3).
as §8, §9, §10

[8] = test system: PH-COPD subjects; experiment: Acute iNO: blood vessel volume by HRCT in PH-COPD subjects; format: in vivo, human; settings: acute assessment
Text: as §1, §2, §4

[9] = test system: PH-IPF subjects; experiment: Safety of iNO dose in PH-IPF subjects (PAP, RHC-monitored titration); format: in vivo, human
Experimental: The safety endpoints in this study were: • 1. Incidence and severity of treatment emergent adverse events (AEs), including those related to device deficiency; • 2. Incidence of MetHb levels >7.0%; • 3. New symptoms that may be due to rebound PH associated with a temporal acute withdrawal of investigational study drug (i.e., symptoms occurring within 20 minutes of acute withdrawal and including those associated with investigational medical device malfunction or failure): systemic arterial oxygen desaturation, hypoxemia, bradycardia, tachycardia, systemic hypotension, near-syncope, syncope, ventricular fibrillation, and/or cardiac arrest; • 4. New or worsening symptoms of left heart failure or pulmonary edema; and • 5. Any decrease in systemic oxygenation measured by oxygen saturation of arterial blood by pulse oximetry (SpO2), i.e., hypoxia or oxygen saturation decrease, deemed by the Investigator to be clinically significant.
The initial protocol intended that 4 subjects would be enrolled in Part 2. […] It was decided to temporarily stop recruitment. One of the 2 subjects completed 4 weeks of chronic use in Part 2b.
In the amendment a total of 2 subjects participated in Part 3. The dose in Part 3 was lower than in Part 2 and each subject was titrated to the optimum dose as determined by the investigator. […] The dose was monitored with a RHC in place. […]

[10] = test system: PH-IPF subjects; experiment: Chronic iNO: SpO2 during 6MWT in PH-IPF subjects; format: in vivo, human; settings: during exercise (6MWT)
Text: The secondary endpoints of Part 2b (chronic dosing) were change in 6MWT with Borg CR10 leg fatigue and dyspnea scale and SpO2, at the beginning and end of the 6MWT and symptoms evaluated using a questionnaire with after 4 weeks use of iNO at a dose of 75 mcg/kg IBW/hr and 2 weeks post discontinuation of iNO.
The secondary endpoints of Part 3b (chronic dosing) were change in 6MWT with Borg CR10 leg fatigue and dyspnea scale and SpO2, at the beginning and end of the 6MWT and symptoms evaluated using a questionnaire after 4 weeks use of iNO at a dose of 30 mcg/kg IBW/hr.
In Part 2b and Part 3b change in 6MWT with Borg CR10 leg fatigue and dyspnea scale and SpO2, at the beginning and end of the 6MWT, and a symptoms questionnaire were used to assess the effects of long term pulsed iNO administered using a pulsed NO delivery device in subjects with PH associated with IPF on LTOT.
as §6, §7, §10

[11] = Average of PH-IPF Subjects 1 (75) and 3 (30 mcg/kg IBW/hr), 4 weeks
[12] = PH-IPF Subject 1, pulsed iNO 75 mcg/kg IBW/hr for 4 weeks
[13] = PH-IPF Subject 3, pulsed iNO 30 mcg/kg IBW/hr for 4 weeks
[14] = iNO 30 mcg/kg IBW/hr, PH-IPF Patients 3 and 4
[15] = Average of four PH-COPD subjects, iNO 30 mcg/kg IBW/hr for 4 weeks

## [N]=O [iNO, nitric oxide]
[1]; p=0.02
  change in 6MWD after 2 weeks of iNO therapy: +53.9 meters
[1]; p=0.04
  change in 6MWD after 4 weeks of iNO therapy: +50.7 meters
[2]; PH-COPD subjects
  sPAP 4 weeks after iNO therapy was discontinued: 58.0 mm Hg
[2]; seven PH-COPD subjects, iNO 30 mcg/kg IBW/hr, baseline 60.3 mm Hg, p=0.02
  sPAP after 4 weeks of iNO therapy: 48.3 mm Hg
[3]; [11]
  TAPSE % Change, Average: 15%
  TAPSE Increase, Average: 3
[3]; Average of PH-IPF Subjects 1 (75) and 3 (30 mcg/kg IBW/hr), 4 weeks, baseline 20
  TAPSE 4 Week, Average: 23
[3]; [12]
  TAPSE % Change: 21%
  TAPSE Increase: 3
[3]; PH-IPF Subject 1, pulsed iNO 75 mcg/kg IBW/hr for 4 weeks, baseline 14
  TAPSE 4 Week: 17
[3]; [13]
  TAPSE % Change: 12%
  TAPSE Increase: 4
[3]; PH-IPF Subject 3, pulsed iNO 30 mcg/kg IBW/hr for 4 weeks, baseline 25
  TAPSE 4 Week: 28
[4]; [14]
  Acute change in blood vessel volume (%): 2.8 ± 3.0% and 10.1 ± 3.4%
[4]; iNO 30 mcg/kg IBW/hr, Patients 3 & 4, FIGS. 7 and 8
  regional vasodilation in the lungs (targeting): clear targeting of the drug
[4]; iNO 30 mcg/kg IBW/hr, range over Patients 3 & 4
  overall vasodilation: 2.8-10.1%
[4]; iNO 75 mcg/kg IBW/hr, Patients 1 & 2, FIGS. 5 and 6
  regional vasodilation in the lungs (targeting): little to no targeted vasodilation
[4]; iNO 75 mcg/kg IBW/hr, range over Patients 1 & 2
  overall vasodilation: 14.2-34.2%
[5]; iNO dose 25 mcg/kg IBW/hr, same previous clinical study
  efficacy for the treatment of PAH: inefficacious
[5]; iNO dose 75 mcg/kg IBW/hr, previous clinical study
  efficacy for the treatment of PAH: effective
[6]; [15]
  TAPSE % Change, Average: 25%
  TAPSE Increase, Average: 4
[6]; Average of four PH-COPD subjects, iNO 30 mcg/kg IBW/hr for 4 weeks, baseline 16
  TAPSE 4 Week, Average: 20
[6]; PH-COPD subjects, N=5, FIG. 12
  TAPSE after iNO therapy was discontinued: 19.0
[6]; PH-COPD subjects, N=7, baseline 18.8 (N=6), FIG. 12
  TAPSE after chronic iNO therapy: 21.3
[7]; [14]
  Acute Change in sPAP (%): −14.3% and −23.3%
[7]; iNO 75 mcg/kg IBW/hr, PH-IPF Patients 1 and 2
  Acute Change in sPAP (%): −9.3% and −9.7%
[8]; PH-COPD subjects, p=0.03, FIG. 9
  ventilation-vasodilation correlation: significant
[8]; nine PH-COPD subjects, statistically significant
  increase in blood vessel volume on iNO (average): 4.2%
[9]; iNO 75 mcg/kg IBW/hr, the two IPF patients of Part 2
  PAP after discontinuation of iNO: sudden increase in PAP after discontinuation
[9]; iNO titrated to 30 mcg/kg IBW/hr, 2 subjects of Part 3
  dose titration monitored with RHC: safely
[10]; 4 Weeks iNO 30 mcg/kg IBW/hr, Patient 3, baseline 83
  SpO2 Nadir: 89
[10]; 4 Weeks iNO 30 mcg/kg IBW/hr, Patient 3, baseline 88.9
  SpO2 Average: 95.7
[10]; 4 Weeks iNO 75 mcg/kg IBW/hr, Patient 1, baseline 76
  SpO2 Nadir: 79
[10]; 4 Weeks iNO 75 mcg/kg IBW/hr, Patient 1, baseline 89.4
  SpO2 Average: 86.6
